Entries after “also recorded” stand apart in the source; their conditions may differ.
What was measured:
[1] = 9-month oral toxicity study in dogs; assay type: in vivo; details: dog
Experimental: The updated exposure margins considering the highest maximum exposures in rats and dogs are calculated as follows: • Maximum exposure in the rat (male) was in the 14-day IV study and at the 300 mg/kg dose, the AUClast is 1070 μg*hr/mL. • Maximum exposure in dogs occurred at the 300 mg/kg dose in the 9-month oral toxicity study and the AUClast is 1310*μg·hr/mL.

healthy adult subjects [2] = assay: Phase 1 Part A (SAD) safety and tolerability; assay type: in vivo, human
Experimental: (§1) After a baseline period of 24 hours in the clinic, all subjects receive a LD, 1-hour infusion on Day 1. After a 48-hour wash-out period, in which PK and PK/PD data iscollected, subjects receive a 23-hour infusion (1-hour LD followed by a 22-hour maintenance dose). See FIG. 45 for the different dose levels in each SAD cohort. See e.g., Table 33 below. Part A is double-blinded. The cohorts of Part A is conducted sequentially starting with SAD cohort 1.
On Day 1 for Part A, subjects receive LD, 1-hour infusion. On Day 3, after a 48-hour washout period, subjects then receive a 23-hour infusion (1-hour LD followed by a 22-hour MD). No earlier than 24 hours after the end of infusion, subjects is discharged from the clinic on Day 5 (End of Treatment Period [EOTP]). A treatment protocol for the SAD cohorts of Part A is described below: • a. Predose assessments (vital signs and PK assessments) should be done within 30 min of the start of infusion. • b. Vital signs include diastolic and systolic blood pressure and pulse. In addition, temperature and respiratory rate should be collected on predose Day 1 and EOT Day 5. • c. […] AEs was recorded from the start time of the first BGE-105 or placebo study drug infusion until the end of the subject's participation in the study. […]
The Safety Analysis Set is used for safety analysis. Subjects is analyzed based on the actual treatment received.

[3] = Phase 1 study BGE-105-101 Part A (SAD) pharmacokinetics after IV infusion; assay type: in vivo, human; details: for Dose-normalized AUCinf / Dose-normalized Cmax: Mean, unit assumed
Experimental: (§2) In Part A, of 24 subjects enrolled (3 SAD cohorts, 8 subjects each), a total of at least 12 subjects are ≥65 years of age (≥4 subjects in each cohort). The remaining subjects are ≥18 years old.
as §1
On Day 1 for Part A, subjects receive LD, 1-hour infusion. On Day 3, after a 48-hour washout period, subjects then receive a 23-hour infusion (1-hour LD followed by a 22-hour MD). No earlier than 24 hours after the end of infusion, subjects is discharged from the clinic on Day 5 (End of Treatment Period [EOTP]). A treatment protocol for the SAD cohorts of Part A is described below: • a. Predose assessments (vital signs and PK assessments) should be done within 30 min of the start of infusion. • b. Vital signs include diastolic and systolic blood pressure and pulse. In addition, temperature and respiratory rate should be collected on predose Day 1 and EOT Day 5. • c. Safety laboratory tests include complete blood count, clinical chemistries, and urinalysis. • d. Assessments should be done within 1 hour after the end of the LD infusions on Day 1 and Day 3. • e. AEs was recorded from the start time of the first BGE-105 or placebo study drug infusion until the end of the subject's participation in the study. At discharge from the unit, any ongoing AEs was documented in source and in EDC be followed until the event is resolved or stabilized. Any new AEs occurring after discharge will clearly note the start date and end date. • f. Study drug was administered via IV infusion as a LD, 1-hour infusion on Day 1. After a 48-hour wash-out, study drug will then be administered as a 23-hour infusion (1-hour LD followed by a 22-hour MD). • g. Continuous cardiac ECG telemetry monitoring was used, continuing through the end of dosing on Day 4. • h. Blood samples for plasma insulin and glucose monitoring should be collected in the morning, before breakfast and after fasting overnight. • i. Assessments can be done any time after 24 hours after the end of infusion and before discharge.
Relevant plasma PK parameters are derived for BGE-105 by standard noncompartmental methods and tabulated along with descriptive statistics and graphs.

healthy adult subjects [4] = assay: Phase 1 Part A (SAD) insulin resistance (HOMA-IR); assay type: in vivo, human; details: SAD cohorts 1, 2, 3; Day 3 Predose and Day 4 visits; largest decrease in cohort 3
Experimental: as §2
Biomarkers including, but not limited to changes in: • Plasma glucose • Plasma insulin • Insulin resistance (HOMA-IR)
as §1
Blood samples (4 mL) for plasma insulin and glucose monitoring are collected in the morning, before breakfast and after fasting overnight at timepoints described previously.
Data is analyzed as change from baseline within each dose cohort and treatment group. Treatment comparisons are made as a linear contrast of all treated compared to all placebo and for each individual dose cohort versus all placebo based on time-matched samples acquired during the 24-hour period on Day −1. P-values are reported uncorrected for multiplicity.

aged mice = aged mice (18-month-old) first injected with a cardiotoxin; cited from earlier work
[5] = tested on: healthy older adult humans; assay: BGE-105 in immobilized human muscles, 10 days bed rest (Example 11); assay type: in vivo; details: 200 mg of BGE-105 a day
Source text: Two groups of healthy older adult humans (e.g., n=10 per group) who are moderately active remain in bed continuously for 10 days, except for toileting, and they consume a eucaloric diet providing the recommended dietary allowance for protein (0.8 g/kg of protein per day). […] Measurements before and after bed rest include muscle function and protein synthesis.

[6] = tested on: Diet-Induced Obese (DIO) mice; assay: Pilot study of BGE-105 in aged DIO mice treated with semaglutide (Example 1); assay type: in vivo
Source text: Endpoints and measurements used to assess effects included: • Body Weight, Clinical Evaluation & Body Condition Score; • Group Food Intake, Water Intake; • Fed Glucose; • Body composition by Echo-MRI; • Baseline and endpoint grid hang tests; and • Endpoint tissue harvest.
25-month-old (aged) C57BL/6 female mice were used in this study. Diet for 25-month-old C57BL/6 mice included lean control D12450B (10 kcal % fat), or a diet induced-obesity (DIO) diet D12492 (60 kcal % fat) (Research Diets, Inc.). The study duration was 37 days. Treatment started on Day 0 and ended on Day 35-36.
Semaglutide was purchased from MCE (Cat No. HY-114118/CS-0069903)
Mice from all Groups (1-5) were measured with fed glucose, and body weight and body composition for randomization.
Body weight, group food intake, group water intake, body composition and grid hang tests were measured and monitored during the study.
On the day of necropsy, blood plasma and tissue samples were collected.

COc1cccc(OC)c1-n1c(NS(=O)(=O)[C@@H](C)[C@H](C)c2ncc(C)cn2)nnc1-c1cncc(C)c1 [BGE-105, (2S,3R)—N-(4-(2,6-dimethoxyphenyl)-5-(5-methyl-3-pyridinyl)-4H-1,2,4-triazol-3-yl)-3-(5-methyl-2-pyrimidinyl)-2-butanesulfonamide]
NOAEL [1]: maximum dose tested
Serious adverse events (healthy adult subjects [2]; SAD cohorts Part A): no serious adverse events
Tolerability (healthy adult subjects [2]; SAD cohorts, all doses including 240 mg/1440 mg): well tolerated
Dose proportionality of Cmax and AUC ([3]; 3 SAD cohorts, 95% confidence interval for slope includes 1): demonstrated dose proportionality; also recorded: linear across the dose range
Dose-normalized AUCinf ([3]; SAD1 (60 mg/360 mg) Day 1): 0.66 µg·h/mL/mg
Dose-normalized Cmax ([3]; SAD1 (60 mg/360 mg) Day 1): 0.12 µg/mL/mg
Dose-normalized AUCinf ([3]; SAD2 (120 mg/720 mg) Day 1): 0.49 µg·h/mL/mg
Dose-normalized Cmax ([3]; SAD2 (120 mg/720 mg) Day 1): 0.11 µg/mL/mg
Dose-normalized AUCinf ([3]; SAD3 (240 mg/1440 mg) Day 1): 0.5 µg·h/mL/mg
Dose-normalized Cmax ([3]; SAD3 (240 mg/1440 mg) Day 1): 0.11 µg/mL/mg
Percent change from baseline in HOMA-IR (healthy adult subjects [4]): decrease in the percent change from baseline in HOMA-IR
mRNA transcripts indicative of muscle regeneration (aged mice): significantly higher levels of several mRNA transcripts which are indicative of muscle regeneration
Muscle atrophy in immobilized human muscles [5]: prevent or attenuate muscle atrophy
Muscle function, grid hang test (latency before mice fell from the grid) ([6]; semaglutide 100 nmol/kg, BGE-105 1.1 mg/mL, combination compared to either agent alone): increased muscle function
Weight of perigonadal fat at study endpoint ([6]; semaglutide 100 nmol/kg, BGE-105 1.1 mg/mL, combination loss statistically significant): statistically insignificant loss in perigonadal fat
Quadriceps weight as a percentage of total body weight at study endpoint ([6]; semaglutide 100 nmol/kg, BGE-105 1.1 mg/mL, vs DIO control mice): increased quadricep weight as a percentage of total body weight, but the increases did not achieve statistical significance
neutrophil gelatinase-associated lipocalin (NGAL) level at study endpoint ([6]; vs DIO control mice): decreased plasma NGAL level

— patent US20240366602A1, “COMBINATION THERAPY OF APELIN RECEPTOR AGONIST AND GLP-1 RECEPTOR AGONIST FOR TREATING A DISEASE OR CONDITION ASSOCIATED WITH WEIGHT GAIN” (BioAge Labs, Inc., priority 2023, published 2024)
